Consider 21 compounds from patent US20240309038A1, “NOVEL GALACTOSIDE INHIBITOR OF GALECTINS” (GALECTO BIOTECH AB, priority 2020, published 2024).

The structures appear in SMILES notation.

Broadly, the Kd is the concentration at which binding is half-saturated.

For this assay, the target named is Gal-3 (Homo sapiens, UniProt P17931). The experiment in a line: Fluorescence anisotropy assay, inhibition of galectin / fluorescein tagged saccharide probe interaction. Format: binding. The method, then: The affinity of Example 1-59 for galectins were determined by a fluorescence anisotropy assay where the compound was used as an inhibitor of the interaction between galectin and a fluorescein tagged saccharide probe as described Sörme, P., Kahl-Knutsson, B., Huflejt, M., Nilsson, U. J., and Leffler H. (2004) Fluorescence polarization as an analytical tool to evaluate galectin-ligand interactions. Anal. Biochem. 334: 36-47, (Sarme et al., 2004)
Sequence of Gal-3 (P17931 whole entry, species assumed): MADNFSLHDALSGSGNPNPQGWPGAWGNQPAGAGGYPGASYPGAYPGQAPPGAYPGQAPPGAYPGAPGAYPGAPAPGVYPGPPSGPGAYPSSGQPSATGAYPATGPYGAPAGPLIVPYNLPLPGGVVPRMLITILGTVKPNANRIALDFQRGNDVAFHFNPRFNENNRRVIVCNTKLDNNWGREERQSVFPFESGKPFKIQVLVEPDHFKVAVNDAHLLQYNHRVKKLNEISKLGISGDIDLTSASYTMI
(In general: In fluorescence polarisation assays a small probe gives low polarisation when free and higher when bound to something large.)
With `Cc1nc([C@@H]2OC(CO)[C@H](O)C(n3cc(-c4cc(F)c(F)c(F)c4)cn3)C2O)n(-c2cc(Cl)cnc2C#N)n1` (stereo in doubt) [Example 21, 5-Chloro-2-cyano-3-{5-{3-deoxy-3-[4-(3,4,5-trifluorophenyl)-1H-1,2-pyrazol-1-yl]-β-D-galactopyranosyl}-3-methyl-1H-1,2,4-triazol-1-yl}pyridine], the affinity, expressed as Kd, was 82 nM.
As for `Cc1nc([C@@H]2OC(CO)[C@H](O)C(n3cc(-c4ccc(C(F)(F)F)cc4)cn3)C2O)n(-c2cc(Cl)ccc2C(F)(F)F)n1` (stereo in doubt) [Example 56, 5-Chloro-1-{5-{3-deoxy-3-{4-[4-(trifluoromethyl)phenyl]-1H-1,2-pyrazol-1-yl}-β-D-galactopyranosyl}-3-methyl-1H-1,2,4-triazol-1-yl}-2-(trifluoromethyl)benzene], the figure is 110 nM.
As for `Cc1nc([C@@H]2OC(CO)[C@H](O)C(n3cc(-c4cc(F)c(Cl)c(F)c4)c(C)n3)C2O)n(-c2cc(Cl)ccc2C(F)(F)F)n1` (stereo in doubt) [Example 12, 1-{5-{3-[4-(4-Chloro-3,5-difluorophenyl)-3-methyl-1H-1,2-pyrazol-1-yl]-3-deoxy-β-D-galactopyranosyl}-3-methyl-1H-1,2,4-triazol-1-yl}-5-chloro-2-(trifluoromethyl)benzene], the figure is 11 nM.
As for `COc1ccccc1-c1nn(C2C(O)[C@H](c3nc(C)nn3-c3cc(Cl)ccc3C(F)(F)F)OC(CO)[C@@H]2O)cc1-c1cc(F)c(F)c(F)c1` (stereo in doubt) [Example 52, 5-Chloro-1-{5-{3-deoxy-3-[4-(3,4,5-trifluorophenyl)-3-(2-methoxyphenyl)-1H-1,2-pyrazol-1-yl]-β-D-galactopyranosyl}-3-methyl-1H-1,2,4-triazol-1-yl}-2-(trifluoromethyl)benzene], binding was put at a Kd of 20 nM.
As for `Cc1nc([C@@H]2OC(CO)[C@H](O)C(n3cc(-c4cc(F)c(Cl)c(F)c4)c(C(N)=O)n3)C2O)n(-c2cc(Cl)ccc2C(F)(F)F)n1` (stereo in doubt) [Example 32, 1-{5-{3-[3-Aminocarbonyl-4-(4-chloro-3,5-difluorophenyl)-1H-1,2-pyrazol-1-yl]-3-deoxy-β-D-galactopyranosyl}-3-methyl-1H-1,2,4-triazol-1-yl}-5-chloro-2-(trifluoromethyl)benzene], the figure is 23 nM.
As for `Cc1nc([C@@H]2OC(CO)[C@H](O)C(n3cc(-c4cc(F)c(F)c(F)c4)c(-c4ccccc4F)n3)C2O)n(-c2cc(Cl)ccc2C(F)(F)F)n1` (stereo in doubt) [Example 48, 5-Chloro-1-{5-{3-deoxy-3-[4-(3,4,5-trifluorophenyl)-3-(2-fluorophenyl)-1H-1,2-pyrazol-1-yl]-β-D-galactopyranosyl}-3-methyl-1H-1,2,4-triazol-1-yl}-2-(trifluoromethyl)benzene], the figure is 54 nM.
For `C#Cc1c(F)cc(-c2cnn(C3C(O)[C@H](c4nc(C)nn4-c4cc(Cl)ccc4C(F)(F)F)OC(CO)[C@@H]3O)c2)cc1F` (stereo in doubt) [Example 17, 5-Chloro-1-{5-{3-deoxy-3-[4-(4-ethynyl-3,5-difluorophenyl)-1H-1,2-pyrazol-1-yl]-β-D-galactopyranosyl}-3-methyl-1H-1,2,4-triazol-1-yl}-2-(trifluoromethyl)benzene], the Kd amounted to 60 nM. This Kd and that of the compound before are within 1.5-fold of each other.
With `Cc1nc([C@@H]2OC(CO)[C@H](O)C(n3cc(-c4cc(F)c(Cl)c(F)c4)cn3)C2O)n(-c2cc(Cl)cnc2C(F)(F)F)n1` (stereo in doubt) [Example 28, 3-{5-{3-[4-(4-Chloro-3,5-difluorophenyl)-1H-1,2-pyrazol-1-yl]-3-deoxy-β-D-galactopyranosyl}-3-methyl-1H-1,2,4-triazol-1-yl}-5-chloro-2-(trifluoromethyl)pyridine], binding was put at a Kd of 15 nM.
In turn, `Cc1nc([C@@H]2OC(CO)[C@H](O)C(n3cc(-c4cc(F)c(F)c(F)c4)cn3)C2O)n(-c2cc(Br)ccc2C#N)n1` (stereo in doubt) [Example 26, 5-Bromo-2-cyano-1-{5-{3-deoxy-3-[4-(3,4,5-trifluorophenyl)-1H-1,2-pyrazol-1-yl]-β-D-galactopyranosyl}-3-methyl-1H-1,2,4-triazol-1-yl}benzene] displayed a dissociation constant (Kd) of 15 nM.
The compound `Cc1nc([C@@H]2OC(CO)[C@H](O)C(n3cc(-c4cc(F)c(F)c(F)c4)cn3)C2O)n(-c2cc(Cl)ccc2C(F)(F)F)n1` (stereo in doubt) [Example 3, 5-Chloro-1-{5-{3-deoxy-3-[4-(3,4,5-trifluorophenyl)-1H-1,2-pyrazol-1-yl]-β-D-galactopyranosyl}-3-methyl-1H-1,2,4-triazol-1-yl}-2-(trifluoromethyl)benzene] displayed a dissociation constant Kd of 9 nM.
As for `Cc1nc([C@@H]2OC(CO)[C@H](O)C(n3cc(-c4cc(F)c(F)c(F)c4)cn3)C2O)n(-c2cnc3nc(C)sc3c2)n1` (stereo in doubt) [Example 45, 6-{5-{3-Deoxy-3-[4-(3,4,5-trifluorophenyl)-1H-1,2-pyrazol-1-yl]-β-D-galactopyranosyl}-3-methyl-1H-1,2,4-triazol-1-yl}-2-methylthiazolo[4,5-b]pyridine], the figure is 35 nM.
As for `Cc1nc([C@@H]2OC(CO)[C@H](O)C(n3cc(-c4cccc(Cl)c4)cn3)C2O)n(-c2cc(Cl)ccc2C(F)(F)F)n1` (stereo in doubt) [Example 58, 1-{5-{3-[4-(3-Chlorophenyl)-1H-1,2-pyrazol-1-yl]-3-deoxy-β-D-galactopyranosyl}-3-methyl-1H-1,2,4-triazol-1-yl}-5-chloro-2-(trifluoromethyl)benzene], the figure is 97 nM; as for `Cc1nc([C@@H]2OC(CO)[C@H](O)C(n3cc(-c4cc(F)c(F)c(F)c4)cn3)C2O)n(-c2cc3sc(C)nc3cc2C#N)n1` (stereo in doubt) [Example 44, 5-Cyano-6-{5-{3-deoxy-3-[4-(3,4,5-trifluorophenyl)-1H-1,2-pyrazol-1-yl]-β-D-galactopyranosyl}-3-methyl-1H-1,2,4-triazol-1-yl}-2-methylbenzothiazole], 17 nM; as for `CCOC(=O)c1nn(C2C(O)[C@H](c3nc(C)nn3-c3cc(Cl)ccc3C(F)(F)F)OC(CO)[C@@H]2O)cc1-c1cc(F)c(Cl)c(F)c1` (stereo in doubt) [Example 29, 1-{5-{3-[4-(4-Chloro-3,5-difluorophenyl)-3-ethoxycarbonyl-1H-1,2-pyrazol-1-yl]-3-deoxy-β-D-galactopyranosyl}-3-methyl-1H-1,2,4-triazol-1-yl}-5-chloro-2-(trifluoromethyl)benzene], 28 nM.
As for `Cc1nc([C@@H]2OC(CO)[C@H](O)C(n3cc(-c4cc(F)c(F)c(F)c4)cn3)C2O)n(-c2ccc3nc(C(F)(F)F)sc3c2)n1` (stereo in doubt) [Example 36, 6-{5-{3-Deoxy-3-[4-(3,4,5-trifluorophenyl)-1H-1,2-pyrazol-1-yl]-β-D-galactopyranosyl}-3-methyl-1H-1,2,4-triazol-1-yl}-2-(trifluoromethyl)benzothiazole], the figure is 230 nM; as for `C#CCc1c(F)cc(-c2cnn(C3C(O)[C@H](c4nc(C)nn4-c4cc(Cl)ccc4C(F)(F)F)OC(CO)[C@@H]3O)c2)cc1F` (stereo in doubt) [Example 18, 5-Chloro-1-{5-{3-deoxy-3-{4-[3,5-difluoro-4-(2-propyn-1-yl)phenyl]-1H-1,2-pyrazol-1-yl}-β-D-galactopyranosyl}-3-methyl-1H-1,2,4-triazol-1-yl}-2-(trifluoromethyl)benzene], 26 nM; as for `Cc1nnc([C@@H]2OC(CO)[C@H](O)C(n3cc(-c4cc(F)c(Cl)c(F)c4)cn3)C2O)n1-c1cc(Cl)ccc1C(F)(F)F` (single isomer, unassigned) [Example 11, 1-{3-{3-[4-(4-Chloro-3,5-difluorophenyl)-1H-1,2-pyrazol-1-yl]-3-deoxy-β-D-galactopyranosyl}-5-methyl-4H-1,2,4-triazol-4-yl}-5-chloro-2-(trifluoromethyl)benzene], 7 nM.
In turn, `Cc1nc([C@@H]2OC(CO)[C@H](O)C(n3cc(-c4cc(F)c(F)c(F)c4)cn3)C2O)n(-c2cc(Br)cnc2C(F)(F)F)n1` (stereo in doubt) [Example 25, 5-Bromo-3-{5-{3-deoxy-3-[4-(3,4,5-trifluorophenyl)-1H-1,2-pyrazol-1-yl]-β-D-galactopyranosyl}-3-methyl-1H-1,2,4-triazol-1-yl}-2-(trifluoromethyl)pyridine] gave a dissociation constant Kd of 11 nM.
As for `Cc1nc([C@@H]2OC(CO)[C@H](O)C(n3cc(-c4cc(F)c(F)c(F)c4)cn3)C2O)n(-c2cc(Cl)cnc2C(F)(F)F)n1` (stereo in doubt) [Example 20, 5-Chloro-3-{5-{3-deoxy-3-[4-(3,4,5-trifluorophenyl)-1H-1,2-pyrazol-1-yl]-β-D-galactopyranosyl}-3-methyl-1H-1,2,4-triazol-1-yl}-2-(trifluoromethyl)pyridine], the figure is 11 nM.
Then `Cc1nc([C@@H]2OC(CO)[C@H](O)C(n3cc(-c4cc(F)c(F)c(F)c4)c(-c4ccc(F)cc4)n3)C2O)n(-c2cc(Cl)ccc2C(F)(F)F)n1` (stereo in doubt) [Example 55, 5-Chloro-1-{5-{3-deoxy-3-[4-(3,4,5-trifluorophenyl)-3-(4-fluorophenyl)-1H-1,2-pyrazol-1-yl]-β-D-galactopyranosyl}-3-methyl-1H-1,2,4-triazol-1-yl}-2-(trifluoromethyl)benzene], with 100 nM; and `Cc1nc([C@@H]2OC(CO)[C@H](O)C(n3cc(-c4cc(F)c(F)c(F)c4)cn3)C2O)n(-c2cc(Br)cnc2C#N)n1` (stereo in doubt) [Example 22, 5-Bromo-2-cyano-3-{5-{3-deoxy-3-[4-(3,4,5-trifluorophenyl)-1H-1,2-pyrazol-1-yl]-β-D-galactopyranosyl}-3-methyl-1H-1,2,4-triazol-1-yl}pyridine], with 33 nM.
